Assay results: US20030144310A1 (priority 2001, published 2003)
Read-outs that look alike come from different tables or passages of the source.

Assays:
rNPFF-2 [1] = target: T1, rNPFF-2 (Rattus norvegicus, UniProt Q9EQD2); test: Radioligand binding assay, competitive displacement of [125I]1DMeNPFF at cloned NPFF receptors; conditions: cloned rat receptor
T1 construct: expressed in transfected cells

rNPFF-2 [2] = target: T1, rNPFF-2; test: Functional activity (EC50 and intrinsic activity relative to NPFF); assay type: cell-based; conditions: for Functional Activity rNPFF-2 I.A. %: intrinsic activity as percentage of maximal response by NPFF
From the text: (§1) The data shown are representative of at least two independent experiments.

rNPFF-1 [3] = target: T2, rNPFF-1 (Rattus norvegicus, UniProt Q9EP86); test: Radioligand binding assay, competitive displacement of [125I]1DMeNPFF at cloned NPFF receptors; conditions: cloned rat receptor
T2 construct: expressed in transfected cells

rNPFF-1 [4] = target: T2, rNPFF-1; test: Functional activity (EC50 and intrinsic activity relative to NPFF); assay type: cell-based; conditions: for Functional Activity rNPFF-1 I.A. %: intrinsic activity as percentage of maximal response by NPFF; for EC50: tested 0.001 nM to 3600 nM
From the text: as §1

[5] = tested 0.001 nM to 3600 nM, read-out: Functional Activity rNPFF-2 EC50
[6] = rat cloned NPFF receptors, by IA and Ki

T2 sequence (Q9EP86 whole entry): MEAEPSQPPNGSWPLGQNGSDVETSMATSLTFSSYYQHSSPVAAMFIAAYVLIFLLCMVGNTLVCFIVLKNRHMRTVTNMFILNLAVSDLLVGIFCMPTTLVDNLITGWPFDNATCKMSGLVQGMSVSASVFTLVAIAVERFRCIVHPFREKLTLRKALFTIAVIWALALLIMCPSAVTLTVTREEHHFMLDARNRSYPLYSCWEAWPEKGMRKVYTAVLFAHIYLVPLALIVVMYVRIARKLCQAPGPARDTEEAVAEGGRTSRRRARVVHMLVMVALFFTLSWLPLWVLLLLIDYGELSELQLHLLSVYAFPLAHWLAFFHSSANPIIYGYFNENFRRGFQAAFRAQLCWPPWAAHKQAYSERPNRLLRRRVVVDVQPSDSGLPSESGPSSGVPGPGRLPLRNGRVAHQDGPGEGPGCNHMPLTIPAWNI
T1 sequence (Q9EQD2 whole entry): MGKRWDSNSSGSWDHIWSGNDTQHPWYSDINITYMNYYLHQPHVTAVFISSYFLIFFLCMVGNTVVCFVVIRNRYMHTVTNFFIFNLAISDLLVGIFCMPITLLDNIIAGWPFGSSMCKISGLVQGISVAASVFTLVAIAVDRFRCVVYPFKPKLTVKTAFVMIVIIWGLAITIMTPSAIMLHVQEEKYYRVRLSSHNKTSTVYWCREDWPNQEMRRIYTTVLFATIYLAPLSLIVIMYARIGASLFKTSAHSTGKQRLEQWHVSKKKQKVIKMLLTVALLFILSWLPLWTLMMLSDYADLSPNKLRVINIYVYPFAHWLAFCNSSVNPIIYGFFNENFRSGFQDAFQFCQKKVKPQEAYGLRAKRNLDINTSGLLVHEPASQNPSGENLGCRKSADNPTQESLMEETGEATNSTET

Row | Structure (SMILES) | Ki (rNPFF-2 [1]) | Functional Activity rNPFF-2 I.A. % (rNPFF-2 [2]) | EC50 (rNPFF-2 [2]; [5]) | Ki (rNPFF-1 [3]) | Functional Activity rNPFF-1 I.A. % (rNPFF-1 [4]) | EC50 (rNPFF-1 [4]) | EC50 (rNPFF-2 [2]) | classification agonist/antagonist at NPFF2 receptors (rNPFF-2 [2]; [6]) | classification agonist/antagonist at NPFF1 receptors (rNPFF-1 [4]; [6])
1 | N=C(N)NCCC[C@H](NS(=O)(=O)c1ccc(Cl)cc1)C(=O)N[C@@H](Cc1ccccc1)C(N)=O [Compound 1006] | 1010 nM | 43% | 3720 nM | 266 nM | 75% | 151 nM | – | – | –
2 | N=C(N)NCCC[C@H](NS(=O)(=O)c1ccc2ccccc2c1)C(=O)N[C@@H](Cc1ccccc1)C(N)=O [Compound 1014, N1-[(1S)-2-Amino-1-benzyl-2-oxoethyl]-(2S)-(5-guanidino)-2-[(2-naphthylsulfonyl)amino]pentanamide] | 2780 nM | 73% | 906 nM | 314 nM | 74% | 52 nM | – | – | –
3 | N=C(N)NCCC[C@H](NS(=O)(=O)c1cc(Cl)ccc1Cl)C(=O)N[C@@H](Cc1ccccc1)C(N)=O [Compound 1021] | 2030 nM | 59% | 2330 nM | 335 nM | 78% | 1030 nM | – | – | –
4 | N=C(N)NCCC[C@H](NS(=O)(=O)c1ccc([N+](=O)[O-])cc1)C(=O)N[C@@H](Cc1ccccc1)C(N)=O [Compound 1003] | 2610 nM | 44% | 1870 nM | 732 nM | 74% | 149 nM | – | – | –
5 | N=C(N)NCCC[C@H](NS(=O)(=O)c1ccccc1Br)C(=O)N[C@@H](Cc1ccccc1)C(N)=O [Compound 2001] | – | 09% | – | – | – | – | – | – | –
6 | N=C(N)NCCC[C@H](NS(=O)(=O)c1c(F)cccc1F)C(=O)N[C@@H](Cc1ccccc1)C(N)=O [Compound 1004] | 1450 nM | 43% | – | 173 nM | 79% | 117 nM | – | – | –
7 | N=C(N)NCCC[C@H](NS(=O)(=O)c1c(F)cccc1F)C(=O)N[C@H](Cc1ccccc1)C(N)=O [Compound 1032] | > 10000 nM | 61% | 2760 nM | 1290 nM | 47% | 644 nM | – | – | –
8 | N=C(N)NCCC[C@H](NS(=O)(=O)c1ccccc1[N+](=O)[O-])C(=O)N[C@@H](Cc1ccccc1)C(N)=O [Compound 1026] | 3500 nM | 59% | > 3160 nM | 535 nM | 79% | 412 nM | – | – | –
9 | N=C(N)NCCC[C@H](NS(=O)(=O)c1cccs1)C(=O)N[C@@H](Cc1ccccc1)C(N)=O [Compound 1013] | 6390 nM | 42% | > 3160 nM | 211 nM | 80% | 135 nM | – | – | –
10 | N=C(N)NCCC[C@H](NS(=O)(=O)c1ccc(I)cc1)C(=O)N[C@@H](Cc1ccccc1)C(N)=O [Compound 1012] | 2920 nM | 93% | 1420 nM | 1430 nM | 71% | 358 nM | – | – | –
11 | N=C(N)NCCC[C@H](NS(=O)(=O)Cc1ccccc1)C(=O)N[C@@H](Cc1ccccc1)C(N)=O [Compound 1011, N1-[(1S)-2-Amino-1-benzyl-2-oxoethyl]-(25)-5-[amino(imino)methyl]amino-2-[(benzylsulfonyl)amino]pentanamide] | > 10000 nM | 62% | 1340 nM | 5960 nM | 74% | 765 nM | – | – | –
12 | N=C(N)NCCC[C@H](NS(=O)(=O)c1ccc(Cl)cc1Cl)C(=O)N[C@@H](Cc1ccccc1)C(N)=O [Compound 1010] | 1860 nM | 28% | 2980 nM | 871 nM | 85% | 594 nM | – | – | –
13 | N=C(N)NCCC[C@H](NS(=O)(=O)c1ccc([N+](=O)[O-])cc1[N+](=O)[O-])C(=O)N[C@@H](Cc1ccccc1)C(N)=O [Compound 2002] | 5490 nM | 05% | – | 1390 nM | 34% | – | > 10000 nM | – | –
14 | N#Cc1ccccc1S(=O)(=O)N[C@@H](CCCNC(=N)N)C(=O)N[C@@H](Cc1ccccc1)C(N)=O [Compound 1027] | 6170 nM | – | > 3160 nM | 515 nM | – | 183 nM | – | – | –
15 | N#Cc1cccc(S(=O)(=O)N[C@@H](CCCNC(=N)N)C(=O)N[C@@H](Cc2ccccc2)C(N)=O)c1 [Compound 1023] | 9920 nM | 28% | > 3160 nM | 496 nM | 90% | 166 nM | – | – | –
16 | N=C(N)NCCC[C@H](NS(=O)(=O)c1ccc(F)c(Cl)c1)C(=O)N[C@@H](Cc1ccccc1)C(N)=O [Compound 1017] | 3560 nM | 45% | > 3160 nM | 1140 nM | 84% | 376 nM | – | – | –

Row | Structure (SMILES) | Ki (rNPFF-2 [1]) | Functional Activity rNPFF-2 I.A. % (rNPFF-2 [2]) | EC50 (rNPFF-2 [2]; [5]) | Ki (rNPFF-1 [3]) | Functional Activity rNPFF-1 I.A. % (rNPFF-1 [4]) | EC50 (rNPFF-1 [4]) | EC50 (rNPFF-2 [2]) | classification agonist/antagonist at NPFF2 receptors (rNPFF-2 [2]; [6]) | classification agonist/antagonist at NPFF1 receptors (rNPFF-1 [4]; [6])
17 | N=C(N)NCCC[C@@H](NS(=O)(=O)c1ccccc1Br)C(=O)N[C@@H](Cc1ccccc1)C(N)=O [Compound 1030] | – | 71% | – | – | – | – | – | – | –
18 | N=C(N)NCCC[C@H](NS(=O)(=O)c1ccc(Cl)c([N+](=O)[O-])c1)C(=O)N[C@@H](Cc1ccccc1)C(N)=O [Compound 1016] | 2090 nM | 81% | 660 nM | 151 nM | 72% | 62 nM | – | – | –
19 | N=C(N)NCCC[C@H](NS(=O)(=O)c1ccc(Cl)c(Cl)c1)C(=O)N[C@@H](Cc1ccccc1)C(N)=O [Compound 1022] | – | 34% | > 3160 nM | – | 86% | 1860 nM | – | – | –
20 | N=C(N)NCCC[C@H](NS(=O)(=O)c1c(F)c(F)c(F)c(F)c1F)C(=O)N[C@@H](Cc1ccccc1)C(N)=O [Compound 1024] | 5400 nM | 43% | > 3160 nM | 486 nM | 69% | 720 nM | – | – | –
21 | COc1ccc(Br)cc1S(=O)(=O)N[C@@H](CCCNC(=N)N)C(=O)N[C@@H](Cc1ccccc1)C(N)=O [Compound 1025] | 4120 nM | 33% | > 3160 nM | 328 nM | 78% | 596 nM | – | – | –
22 | N=C(N)NCCC[C@H](NS(=O)(=O)c1ccc2ccccc2c1)C(=O)N[C@H](Cc1ccccc1)C(N)=O [Compound 1029] | 2690 nM | 86% | > 3160 nM | 399 nM | 30% | 477 nM | – | – | –
23 | COc1ccc(C)cc1S(=O)(=O)N[C@@H](CCCNC(=N)N)C(=O)N[C@@H](Cc1ccccc1)C(N)=O [Compound 2003] | > 10000 nM | 52% | > 3160 nM | – | 102% | – | – | – | –
24 | N=C(N)NCCC[C@H](NS(=O)(=O)c1ccc(C(F)(F)F)cc1[N+](=O)[O-])C(=O)N[C@@H](Cc1ccccc1)C(N)=O [Compound 1018] | 4430 nM | 10% | 5620 nM | 1950 nM | 21% | > 3160 nM | – | – | –
25 | N=C(N)NCCC[C@H](NS(=O)(=O)c1ccc(F)cc1)C(=O)N[C@@H](Cc1ccccc1)C(N)=O [Compound 1005] | 1370 nM | 46% | 3500 nM | 150 nM | 71% | 104 nM | – | – | –
26 | N=C(N)NCCC[C@H](NS(=O)(=O)c1cccc2ccccc12)C(=O)N[C@@H](Cc1ccccc1)C(N)=O [Compound 1001, N1-[(1S)-2-Amino-1-benzyl-2-oxoethyl]-(2S)-(5-guanidino)-2-[(1-naphthylsulfonyl)amino]pentanamide] | 1450 nM | 81% | 527 nM | 261 nM | 88% | 38 nM | – | – | –
27 | N=C(N)NCCC[C@H](NS(=O)(=O)c1ccccc1)C(=O)N[C@@H](Cc1ccccc1)C(N)=O [Compound 1008] | 4410 nM | 20% | 5620 nM | 321 nM | 70% | 4700 nM | – | – | –
28 | COc1ccc(S(=O)(=O)N[C@@H](CCCNC(=N)N)C(=O)N[C@@H](Cc2ccccc2)C(N)=O)cc1OC [Compound 1015] | > 10000 nM | 74% | 1810 nM | 462 nM | 84% | 140 nM | – | – | –
29 | Cc1ccc(S(=O)(=O)N[C@@H](CCCNC(=N)N)C(=O)N[C@@H](Cc2ccccc2)C(N)=O)cc1 [Compound 1007] | 3080 nM | 55% | 2300 nM | 756 nM | 79% | 286 nM | – | – | –
30 | N=C(N)NCCC[C@@H](NS(=O)(=O)c1cccc2ccccc12)C(=O)N[C@@H](Cc1ccccc1)C(N)=O [Compound 3001] | 2860 nM | 79% | 378 nM | 46 nM | 1% | > 10000 nM | – | agonist (an agonist has an intrinsic activity (IA)>15%) | antagonist (an antagonist has a Ki≦1.2 μM and an intrinsic activity (IA)≦15%)
31 | COc1ccc(S(=O)(=O)N[C@@H](CCCNC(=N)N)C(=O)N[C@@H](Cc2ccccc2)C(N)=O)cc1 [Compound 1009] | 1090 nM | – | – | 321 nM | – | – | – | – | –
